Reference: ChEMBL document CHEMBL3286268, “Green synthesis and anti-inflammatory studies of a series of 1,1-bis(heteroaryl)alkane derivatives” (Eur J Med Chem, 2014)

Assays:
[1] = Cytotoxicity against mouse RAW264.7 cells assessed as cell viability at 50 uM after 22 hrs by MTT assay relative to control; format: cell-based; details: read-out: Activity
RAW264.7 [2] = test: Antiinflammatory activity in mouse RAW264.7 cells assessed as inhibition of LPS-induced nitrite production at 50 uM after 22 hrs by Griess method relative to LPS-treated control; format: functional; details: RAW264.7, 22 h
RAW264.7 [3] = test: Antiinflammatory activity in mouse RAW264.7 cells assessed as inhibition of LPS-induced nitrite production after 22 hrs by Griess method; format: functional, cell-based; details: RAW264.7, 22 h

Row | SMILES | viability at 22 h, 50 µM [1] | inhibition at 50 µM (RAW264.7 [2]) | IC50 (RAW264.7 [3])
1 | c1ccc(C(c2ccc[nH]2)c2ccc[nH]2)cc1 | 100% | 2.1% | –
2 | Cc1ccc(C(c2ccccc2)c2ccc(C)o2)o1 | 99.3% | 33.4% | –
3 | Cc1ccc(C(c2ccc(F)cc2)c2ccc(C)o2)o1 | 97.8% | 64.2% | 44.8 µM
4 | Cc1ccc(C(c2ccc(Cl)cc2)c2ccc(C)o2)o1 | 101% | 39.5% | 50.7 µM
5 | Cc1ccc(C(c2ccc(Br)cc2)c2ccc(C)o2)o1 | 101% | 24.9% | –
6 | Cc1ccc(C(c2ccc([N+](=O)[O-])cc2)c2ccc(C)o2)o1 | 96.3% | 73.2% | 42.4 µM
7 | COc1ccc(C(c2ccc(C)o2)c2ccc(C)o2)cc1 | 97.8% | 34.6% | –
8 | COc1cc(C(c2ccc(C)o2)c2ccc(C)o2)ccc1O | 98.2% | 63.7% | 44 µM
9 | CCC(c1ccc(C)o1)c1ccc(C)o1 | 101% | 30.9% | –
10 | CCCCC(c1ccc(C)o1)c1ccc(C)o1 | 100% | 31.7% | –
11 | Cc1ccc(C(CCc2ccccc2)c2ccc(C)o2)o1 | 100% | 46.8% | 60.8 µM
12 | Cc1ccc(C(CC(C)C)c2ccc(C)o2)o1 | 101% | 21.4% | –
13 | CCC(CC)C(c1ccc(C)o1)c1ccc(C)o1 | 101% | 26.6% | –
14 | Cc1ccc(C(c2ccc(C)o2)C2CCCCC2)o1 | 102% | 36.9% | –
15 | CCc1ccc(C(c2ccccc2)c2ccc(CC)o2)o1 | 101% | 41.5% | 70.5 µM
16 | CCc1ccc(C(c2ccc([N+](=O)[O-])cc2)c2ccc(CC)o2)o1 | 101% | 63.3% | 41.1 µM
17 | O=[N+]([O-])c1ccc(C(c2ccc[nH]2)c2ccc[nH]2)cc1 | 95.8% | 26.9% | –
18 | CCc1ccc(C(c2ccc([N+](=O)[O-])cc2)c2ccc(CC)[nH]2)[nH]1 | 99.2% | 50.7% | 56.9 µM
19 | CCc1ccc(C(CCc2ccccc2)c2ccc(CC)o2)o1 | 101% | 39.4% | 74.2 µM
20 | Cc1ccc(C(CCc2ccccc2)c2ccc(C)s2)s1 | 103% | 21.5% | –
21 | N=C(N)NN [PIMAGEDINE] | 100% | 70.2% | 43.3 µM
